Test results as given in paper PMC8274517, “Diaryl azo derivatives as anti-diabetic and antimicrobial agents: synthesis, in vitro, kinetic and docking studies” (Journal of Enzyme Inhibition and Medicinal Chemistry, 2021).
≈ marks a conversion by molar mass, not a printed value. Entries after “also recorded” stand apart in the source; their conditions may differ.

Experiments:
[1] = system: α-glucosidase; assay: In vitro α-glucosidase inhibition assay (pNPG substrate); format: biochemical, Saccharomyces Cerevisiae; conditions: for IC50: means ± SEM of triplicate
Description: The α-glucosidase inhibition assay was performed as described previously. In summary, the stock solution of the enzyme from Saccharomyces Cerevisiae (0.2 U/mL) was prepared in 0.05 M sodium phosphate buffer pH 6.8. […] After incubation, 10 µL of the substrate, p-nitrophenyl α-D-glucopyranoside (pNPG, 5 mM solution in 0.05 M phosphate buffer) was added to the aboveprepared mixture and incubated again under the same experimental conditions. The reaction was stopped with the addition of 0.1 M Na2CO3 and OD405 was taken by a 96-well ELISA reader. The experiment was performed in triplicate.

[2] = molecular target: α-glucosidase; assay: Kinetic analysis and inhibition mechanism of α-glucosidase inhibition; format: biochemical, Saccharomyces Cerevisiae
Description: The potential inhibitor with concentrations 0.00, 0.062, 0.125, 0.25, 0.5 mM was selected for kinetic studies. The substrate (pNPG) concentration was optimised from 5 to 40 mM in all kinetic studies. Pre-incubation and measurement time was the same as discussed in α-glucosidase inhibition assay. The assay was continuously monitored at 405 nm for 5 min at 30 s intervals in the microplate reader after the addition of the enzyme. The inhibition type on the enzyme was assayed by Lineweaver–Burk plots of the inverse of velocities (1/V) versus the inverse of substrate concentration 1/[S] mM^−1, and the inhibition constant Ki was determined by two ways (Dixon plot of 1/V versus inhibitor concentrations) as well as secondary replot of slope versus inhibitor concentrations from Lineweaver–Burk plot.
The plot of the remaining enzyme activity versus the concentrations of the enzyme at different inhibitor concentrations (0.00, 0.062, 0.125, 0.25 and 0.5 mM) was calculated.

[3] = system: E. coli; assay: Antibacterial activity, minimum inhibitory concentration; format: cell-based; design: key: R: resistant; S: sensitive
Description: (§1) The prepared azo derivatives were screened for their antibacterial activity against six bacterial strains obtained from hospital isolates i.e. gram positive (S. aureus, S. aureus (DR)) and gram-negative (E. coli, P. aeruginosa, P. aeruginosa (DR), P. vulgaris). All the strains were confirmed by biochemical identification and drug susceptibility methods. The antibacterial evaluation was done by agar disc diffusion method[39]^,[40] and MIC was determined. In summary, a 48-h old inoculum having ∼0.48 OD600, of the above-mentioned bacterial strains was spread on the solidified trypticase soy agar media and Whatman no. 1 filter paper discs (5 mm in diameter) soaked with the title compounds (10 µL/disc of 10 mg/mL) were placed on the plates. Ampicillin and moxifloxacin were used as positive controls and DMSO as negative control respectively.

[4] = system: P. aeruginosa (DR); assay: as above; format: cell-based; design: key: R: resistant; S: sensitive
Description: as §1

[5] = system: P. aeruginosa (DS); assay: as above; format: cell-based; design: key: R: resistant; S: sensitive
Description: as §1

[6] = system: P. vulgaris; assay: as above; format: cell-based; design: key: R: resistant; S: sensitive
Description: as §1

[7] = system: S. aureus (DR); assay: as above; format: cell-based; design: key: R: resistant; S: sensitive
Description: as §1

[8] = system: S. aureus (DS); assay: as above; format: cell-based; design: key: R: resistant; S: sensitive
Description: as §1

[9] = system: S. aureus (DS); assay: Antibiofilm assay (crystal violet); format: cell-based; conditions: 0.5 mg/mL
Description: The antibiofilm activity of the synthesised azo derivatives was assessed by microtitre plate-based crystal violet method[44] against respective bacterial strains i.e. gram-positive (S. aureus, S. aureus (DR)) and gram-negative (P. aeruginosa, P. aeruginosa (DR)). In brief, 10 µL bacterial suspension, 100 µL trypticase soy broth and 10 µL (10 mg/mL) of test compounds were added in the wells in duplicates and incubated at 37 °C overnight. Ampicillin and moxifloxacin were used as positive controls. After the aspiration of planktonic cells, the biofilm was fixed with 99% methanol. The wells were then washed with 0.1 M sterile PBS (pH = 6.9) thrice and air-dried. Then, 200 µL of crystal violet solution (2%) was added to all wells. After 15 min, the excess of the crystal violet dye was removed and the wells were washed again with PBS. Then, the cell-bound crystal violet was dissolved in 33% acetic acid. The biofilm growth was quantified in terms of OD575 nm using an ELISA plate reader and biofilm hydrolysis was calculated by % inhibition formula.

[10] = system: screened pathogens (S. aureus, P. aeruginosa, E. coli and P. vulgaris); assay: Antibacterial activity, average MIC over screened pathogens; format: cell-based
Description: as §1, with “All the strains were confirmed by biochemical identification and drug susceptibility methods.” left out, “plates.” for “plates. Ampicillin and moxifloxacin were used as positive controls and DMSO as negative control respectively.”

## O=[N+]([O-])c1ccc(/N=N/c2ccc(O)cc2O)cc1 [TR-1, (E)-4-((4-nitrophenyl)diazenyl)benzene-1,3-diol]
[1]; 15.62 µg/mL
  % Inhibition: 49%
[1]; 31.2 µg/mL
  % Inhibition: 68%
[1]; 125 µg/mL
  % Inhibition: 88%
[1]; 250 µg/mL
  % Inhibition: 95%
[1]
  IC50: 15.70 ± 1.3 µg/mL (≈ 60.6 µM)
[2]; EI dissociation constant, Dixon plot and secondary replot
  Ki: 220 µM
[2]; Lineweaver–Burk plot
  Inhibition type: Non-competitive
[2]; inhibitor dose 0.062 mM
  Km: 20 mM
  Vmax: 0.166 ΔA/S
[2]; inhibitor dose 0.125 mM
  Km: 20 mM
  Vmax: 0.125 ΔA/S
[2]; inhibitor dose 0.25 mM
  Km: 20 mM
  Vmax: 0.090 ΔA/S
[2]; inhibitor dose 0.50 mM
  Km: 20 mM
  Vmax: 0.071 ΔA/S
[2]; remaining enzyme activity versus enzyme concentration
  Inhibition (reversibility): reversibly; also recorded: reversible
[3]; 125 µg/200 µL
  Minimum inhibitory concentration: sensitive/resistant: S
[3]; 250 µg/200 µL
  Minimum inhibitory concentration: sensitive/resistant: S
[4]; 125 µg/200 µL
  Minimum inhibitory concentration: sensitive/resistant: S
[4]; 250 µg/200 µL
  Minimum inhibitory concentration: sensitive/resistant: S
[5]; 125 µg/200 µL
  Minimum inhibitory concentration: sensitive/resistant: R
[5]; 250 µg/200 µL
  Minimum inhibitory concentration: sensitive/resistant: R
[6]; 125 µg/200 µL
  Minimum inhibitory concentration: sensitive/resistant: S
[6]; 250 µg/200 µL
  Minimum inhibitory concentration: sensitive/resistant: S
[7]; 125 µg/200 µL
  Minimum inhibitory concentration: sensitive/resistant: R
[7]; 250 µg/200 µL
  Minimum inhibitory concentration: sensitive/resistant: R
[8]; 125 µg/200 µL
  Minimum inhibitory concentration: sensitive/resistant: S
[8]; 250 µg/200 µL
  Minimum inhibitory concentration: sensitive/resistant: S
[9]
  biofilm inhibition: greater than 70%
[10]
  MIC (average value): 125 µg/200 µL

## O=[N+]([O-])c1ccc(/N=N/c2ccc(O)c3ccccc23)cc1 [TR-2, (E)-4-((4-nitrophenyl)diazenyl)naphthalen-1-ol]
[1]; 15.62 µg/mL
  % Inhibition: 16%
[1]; 31.2 µg/mL
  % Inhibition: 30%
[1]; 125 µg/mL
  % Inhibition: 55%
[1]; 250 µg/mL
  % Inhibition: 60%
[1]
  IC50: 110.2 ± 7.8 µg/mL (≈ 376 µM)
[3]; 125 µg/200 µL
  Minimum inhibitory concentration: sensitive/resistant: R
[3]; 250 µg/200 µL
  Minimum inhibitory concentration: sensitive/resistant: S
[4]; 125 µg/200 µL
  Minimum inhibitory concentration: sensitive/resistant: R
[4]; 250 µg/200 µL
  Minimum inhibitory concentration: sensitive/resistant: R
[5]; 125 µg/200 µL
  Minimum inhibitory concentration: sensitive/resistant: R
[5]; 250 µg/200 µL
  Minimum inhibitory concentration: sensitive/resistant: S
[6]; 125 µg/200 µL
  Minimum inhibitory concentration: sensitive/resistant: R
[6]; 250 µg/200 µL
  Minimum inhibitory concentration: sensitive/resistant: R
[7]; 125 µg/200 µL
  Minimum inhibitory concentration: sensitive/resistant: S
[7]; 250 µg/200 µL
  Minimum inhibitory concentration: sensitive/resistant: S
[8]; 125 µg/200 µL
  Minimum inhibitory concentration: sensitive/resistant: R
[8]; 250 µg/200 µL
  Minimum inhibitory concentration: sensitive/resistant: R

## O=[N+]([O-])c1ccc(/N=N/c2c(O)ccc3ccccc23)cc1 [TR-3, (E)-1-((4-nitrophenyl)diazenyl)naphthalen-2-ol]
[1]; 15.62 µg/mL
  % Inhibition: 12%
[1]; 31.2 µg/mL
  % Inhibition: 25%
[1]; 125 µg/mL
  % Inhibition: 54%
[1]
  IC50: 116.9 ± 8.6 µg/mL (≈ 399 µM)
[3]; 125 µg/200 µL
  Minimum inhibitory concentration: sensitive/resistant: R
[3]; 250 µg/200 µL
  Minimum inhibitory concentration: sensitive/resistant: R
[4]; 125 µg/200 µL
  Minimum inhibitory concentration: sensitive/resistant: R
[4]; 250 µg/200 µL
  Minimum inhibitory concentration: sensitive/resistant: R
[5]; 125 µg/200 µL
  Minimum inhibitory concentration: sensitive/resistant: R
[5]; 250 µg/200 µL
  Minimum inhibitory concentration: sensitive/resistant: S
[6]; 125 µg/200 µL
  Minimum inhibitory concentration: sensitive/resistant: R
[6]; 250 µg/200 µL
  Minimum inhibitory concentration: sensitive/resistant: R
[7]; 125 µg/200 µL
  Minimum inhibitory concentration: sensitive/resistant: R
[7]; 250 µg/200 µL
  Minimum inhibitory concentration: sensitive/resistant: R
[8]; 125 µg/200 µL
  Minimum inhibitory concentration: sensitive/resistant: R
[8]; 250 µg/200 µL
  Minimum inhibitory concentration: sensitive/resistant: R
[9]
  biofilm inhibition: greater than 70%
other
  melting point: 245 to 252 °C

## (E)-4-(p-tolyldiazenyl)benzene-1,3-diol [TR-6]
[1]; 15.62 µg/mL
  % Inhibition: 22%
[1]; 31.2 µg/mL
  % Inhibition: 38%
[1]; 125 µg/mL
  % Inhibition: 63%
[1]; 250 µg/mL
  % Inhibition: 87%
[1]
  IC50: 53.7 ± 3.2 µg/mL
[3]; 125 µg/200 µL
  Minimum inhibitory concentration: sensitive/resistant: R
[3]; 250 µg/200 µL
  Minimum inhibitory concentration: sensitive/resistant: S
[4]; 125 µg/200 µL
  Minimum inhibitory concentration: sensitive/resistant: R
[4]; 250 µg/200 µL
  Minimum inhibitory concentration: sensitive/resistant: R
[5]; 125 µg/200 µL
  Minimum inhibitory concentration: sensitive/resistant: S
[5]; 250 µg/200 µL
  Minimum inhibitory concentration: sensitive/resistant: S
[6]; 125 µg/200 µL
  Minimum inhibitory concentration: sensitive/resistant: S
[6]; 250 µg/200 µL
  Minimum inhibitory concentration: sensitive/resistant: S
[7]; 125 µg/200 µL
  Minimum inhibitory concentration: sensitive/resistant: S
[7]; 250 µg/200 µL
  Minimum inhibitory concentration: sensitive/resistant: S
[8]; 125 µg/200 µL
  Minimum inhibitory concentration: sensitive/resistant: S
[8]; 250 µg/200 µL
  Minimum inhibitory concentration: sensitive/resistant: S
[10]
  MIC (average value): 125 µg/200 µL

## (E)-4-(p-tolyldiazenyl)naphthalen-1-ol [TR-4]
[1]; 15.62 µg/mL
  % Inhibition: 7%
[1]; 31.2 µg/mL
  % Inhibition: 13%
[1]; 125 µg/mL
  % Inhibition: 35%
[1]; 250 µg/mL
  % Inhibition: 43%
[3]; 125 µg/200 µL
  Minimum inhibitory concentration: sensitive/resistant: R
[3]; 250 µg/200 µL
  Minimum inhibitory concentration: sensitive/resistant: R
[4]; 125 µg/200 µL
  Minimum inhibitory concentration: sensitive/resistant: S
[4]; 250 µg/200 µL
  Minimum inhibitory concentration: sensitive/resistant: S
[5]; 125 µg/200 µL
  Minimum inhibitory concentration: sensitive/resistant: S
[5]; 250 µg/200 µL
  Minimum inhibitory concentration: sensitive/resistant: S
[6]; 125 µg/200 µL
  Minimum inhibitory concentration: sensitive/resistant: S
[6]; 250 µg/200 µL
  Minimum inhibitory concentration: sensitive/resistant: S
[7]; 125 µg/200 µL
  Minimum inhibitory concentration: sensitive/resistant: S
[7]; 250 µg/200 µL
  Minimum inhibitory concentration: sensitive/resistant: S
[8]; 125 µg/200 µL
  Minimum inhibitory concentration: sensitive/resistant: S
[8]; 250 µg/200 µL
  Minimum inhibitory concentration: sensitive/resistant: S
[10]
  MIC (average value): 125 µg/200 µL
